# Measurements taken from ChEMBL document CHEMBL1136052, “Identification of novel cyclooxygenase-2 selective inhibitors using pharmacophore models” (J Med Chem, 2002).
# What was measured:
# [1] = biological target: Prostaglandin G/H synthase 1 (Homo sapiens) (UniProt P23219); assay: Percent inhibition of arachidonic acid induced TXB2 generation in isolated human platelets (Prostaglandin G/H synthase 1 cell assay) at 10 uM; assay type: functional
# [2] = biological target: Prostaglandin G/H synthase 1 (Homo sapiens) (UniProt P23219); conditions: 100 uM
# [3] = biological target: T1, Prostaglandin G/H synthase 2 (Homo sapiens) (UniProt P35354); assay: % Inhibition of Prostaglandin G/H synthase 2 activity was evaluated at 10 uM concentration, in human whole blood as LPS-induced PGE-2 generation; assay type: functional, tissue-based
# T1 sequence (whole entry): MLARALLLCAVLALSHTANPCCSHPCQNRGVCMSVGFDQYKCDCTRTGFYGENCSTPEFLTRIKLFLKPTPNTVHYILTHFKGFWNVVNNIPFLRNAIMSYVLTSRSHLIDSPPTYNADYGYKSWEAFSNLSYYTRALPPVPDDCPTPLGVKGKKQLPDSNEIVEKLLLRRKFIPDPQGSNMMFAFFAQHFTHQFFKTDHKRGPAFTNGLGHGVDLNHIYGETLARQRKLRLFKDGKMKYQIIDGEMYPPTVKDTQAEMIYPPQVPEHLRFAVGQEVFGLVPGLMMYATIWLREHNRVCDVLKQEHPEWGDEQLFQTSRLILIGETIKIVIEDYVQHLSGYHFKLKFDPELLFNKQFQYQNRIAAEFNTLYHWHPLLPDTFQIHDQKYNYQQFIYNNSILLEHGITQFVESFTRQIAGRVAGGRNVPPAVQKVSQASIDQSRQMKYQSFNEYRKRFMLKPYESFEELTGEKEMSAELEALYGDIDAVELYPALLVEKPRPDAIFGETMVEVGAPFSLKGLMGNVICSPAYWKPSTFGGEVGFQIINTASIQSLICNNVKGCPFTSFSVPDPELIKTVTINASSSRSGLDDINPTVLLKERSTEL
# [4] = biological target: Prostaglandin G/H synthase 1 (Homo sapiens) (UniProt P23219); assay: Percent inhibition of arachidonic acid induced TXB2 generation in isolated human platelets (Prostaglandin G/H synthase 1 cell assay) at 10 uM.; assay type: functional
# [5] = biological target: T2, Prostaglandin G/H synthase 2 (Homo sapiens, UniProt P35354); assay: Inhibition of PGE-2 generation in LPS-stimulated human monocytes (Prostaglandin G/H synthase 2 assay)
# T2 sequence (P35354 whole entry): T1 sequence (whole entry)
# Chain of Prostaglandin G/H synthase 1 (Homo sapiens) (P23219 whole entry): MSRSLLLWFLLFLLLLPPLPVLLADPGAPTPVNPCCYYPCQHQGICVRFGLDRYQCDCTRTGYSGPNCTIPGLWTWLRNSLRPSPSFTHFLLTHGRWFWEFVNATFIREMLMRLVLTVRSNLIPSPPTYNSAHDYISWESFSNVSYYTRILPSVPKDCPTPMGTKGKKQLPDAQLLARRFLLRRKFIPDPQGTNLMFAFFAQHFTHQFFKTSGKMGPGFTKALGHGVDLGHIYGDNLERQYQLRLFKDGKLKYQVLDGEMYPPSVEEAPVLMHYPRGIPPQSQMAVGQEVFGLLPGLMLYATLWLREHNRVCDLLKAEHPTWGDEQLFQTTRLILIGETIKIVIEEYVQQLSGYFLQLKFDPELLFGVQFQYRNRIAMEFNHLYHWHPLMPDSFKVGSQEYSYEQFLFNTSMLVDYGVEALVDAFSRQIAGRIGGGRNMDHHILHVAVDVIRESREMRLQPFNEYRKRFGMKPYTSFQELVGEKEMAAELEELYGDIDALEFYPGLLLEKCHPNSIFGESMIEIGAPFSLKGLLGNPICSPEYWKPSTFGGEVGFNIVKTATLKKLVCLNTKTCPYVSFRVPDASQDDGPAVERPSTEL
smiles,measurement,setting,value
COC(=O)c1cc2cc(S(C)(=O)=O)ccc2n1Cc1ccc(OC)cc1,inhibition,[1],15%
same,inhibition,[2],54%
CS(=O)(=O)c1ccc2c(c1)cc(C(=O)O)n2Cc1ccc(Cl)cc1,inhibition,[1],37%
COC(=O)c1cc2cc(S(C)(=O)=O)ccc2n1C(=O)c1ccc(Cl)cc1,inhibition,[3],< 25%
same,inhibition,[4],16%
same,IC50,[5],730 nM
COC(=O)c1cc2cc(S(C)(=O)=O)ccc2n1C(=O)c1ccc(Br)cc1,inhibition,[4],15%
COC(=O)c1cc2cc(S(C)(=O)=O)ccc2n1Cc1ccc(Br)cc1,inhibition,[1],25%
COC(=O)c1cc2cc(S(C)(=O)=O)ccc2n1Cc1ccc([N+](=O)[O-])cc1,inhibition,[1],0%
COC(=O)c1cc2cc(S(C)(=O)=O)ccc2n1Cc1ccc(Cl)cc1,inhibition,[1],19%
same,inhibition,[2],25%
